Reference: patent publication US11713341B1, “Antimicrobial NCR13 variant peptides” (Vestaron Corporation, priority 2022, dated 2023)
Where a SMILES comes first, the peptide text is derived from it.

Tested on: Botrytis cinerea
Assay: Antimicrobial bioassay (Botrytis cinerea): growth inhibition by OD600
Format: cell-based
Conditions: for anti-Botrytis activities relative to NCR13a: Botrytis cinerea growth, comparison with NCR13a; for Activity ratio to NCR13a: anti-Botrytis cinerea activity (IC50) relative to comparator NCR13a
Procedure: The antimicrobial effect of the NCR13 variant peptides (NVPs) of the present disclosure were evaluated against the fungal species, Botrytis cinerea. […] The growth of Botrytis cinerea was then assessed via OD600 nm after incubation with a given NVP at room temperature after 96 hours. The IC50 of each peptide analyzed is shown in ppm.
The antimicrobial effect of the NCR13 variant peptides (NVPs) of the present disclosure were evaluated against the fungal species, Botrytis cinerea. […] The growth of Botrytis cinerea was then assessed via OD600 nm after incubation with a given NVP at room temperature after 96 hours.
The NVPs assessed were as follows: NVPM3 (+L) (SEQ ID NO: 5); NVPM5 (+M) (SEQ ID NO: 7); NVPM6 (+F) (SEQ ID NO: 8); NVPM7 (+W) (SEQ ID NO: 9); NVPM9 (+S) (SEQ ID NO: 11); NVPM11 (+Y) (SEQ ID NO: 13); NVPM14 (+D) (SEQ ID NO: 16); and NVPM15 (+E) (SEQ ID NO: 17).
NVPs having an amino acid sequence of SEQ ID NOs: 5, 7, 8, 9, 11, 13, 16, and 17 were generated as described above in Example 1. The peptide, NCR13a, having an amino acid sequence of: […] (SEQ ID NO: 2) was selected as a comparator peptide, with which the antifungal activity of the foregoing NVPs was compared.
The fungal species was Botrytis cinerea was cultured in potato dextrose agar plates. Fungal spores were collected from the agar plates and suspended into de-ionized water, followed by enumeration in a Petroff-Hausser counting chamber (VWR).
The 96-well plates were incubated at room temperature for 96 hours without shaking. The OD600 of the culture plate was determined using SpectraMax plate reader. Relative OD600 was determined by normalizing cell growth to control wells containing neither NVPs nor NCR13a. The OD600 was used to determine IC50.

| Structure (SMILES) | anti-Botrytis activities relative to NCR13a | Activity ratio to NCR13a |
| --- | --- | --- |
| CC[C@H](C)[C@H](NC(=O)[C@H](CS)NC(=O)[C@H](CCCCN)NC(=O)[C@@H]1CCCN1C(=O)[C@@H](NC(=O)[C@H](CCCCN)NC(=O)[C@@H]1CCCN1C(=O)[C@H](CCCCN)NC(=O)[C@H](CCCNC(=N)N)NC(=O)[C@H](CS)NC(=O)[C@H](C)NC(=O)[C@H](Cc1ccccc1)NC(=O)[C@H](CCCCN)NC(=O)[C@H](CCCCN)NC(=O)[C@H](CS)NC(=O)[C@H](CC(=O)O)NC(=O)[C@H](CCCCN)NC(=O)[C@H](CC(=O)O)NC(=O)[C@H](CO)NC(=O)[C@H](CCC(N)=O)NC(=O)[C@H](CS)NC(=O)[C@@H]1CCCN1C(=O)[C@H](CCCCN)NC(=O)[C@@H](NC(=O)[C@@H](N)Cc1ccc(O)cc1)[C@@H](C)O)C(C)C)C(=O)N[C@@H](CC(N)=O)C(=O)NCC(=O)N[C@@H](Cc1ccccc1)C(=O)N[C@@H](CS)C(=O)N[C@@H](CCCCN)C(=O)N[C@@H](CS)C(=O)N[C@H](C(=O)N[C@@H](CCCNC(=N)N)C(=O)O)C(C)C [NVPM11] (H-YTKPCQSDKDCKKFACRKPKVPKCINGFCKCVR-OH; N-terminus and C-terminus assumed) | improved anti-Botrytis activities relative to NCR13a | 1.77 |
| CC[C@H](C)[C@H](NC(=O)[C@H](CS)NC(=O)[C@H](CCCCN)NC(=O)[C@@H]1CCCN1C(=O)[C@@H](NC(=O)[C@H](CCCCN)NC(=O)[C@@H]1CCCN1C(=O)[C@H](CCCCN)NC(=O)[C@H](CCCNC(=N)N)NC(=O)[C@H](CS)NC(=O)[C@H](C)NC(=O)[C@H](Cc1ccccc1)NC(=O)[C@H](CCCCN)NC(=O)[C@H](CCCCN)NC(=O)[C@H](CS)NC(=O)[C@H](CC(=O)O)NC(=O)[C@H](CCCCN)NC(=O)[C@H](CC(=O)O)NC(=O)[C@H](CO)NC(=O)[C@H](CCC(N)=O)NC(=O)[C@H](CS)NC(=O)[C@@H]1CCCN1C(=O)[C@H](CCCCN)NC(=O)[C@@H](NC(=O)[C@@H](N)Cc1c[nH]c2ccccc12)[C@@H](C)O)C(C)C)C(=O)N[C@@H](CC(N)=O)C(=O)NCC(=O)N[C@@H](Cc1ccccc1)C(=O)N[C@@H](CS)C(=O)N[C@@H](CCCCN)C(=O)N[C@@H](CS)C(=O)N[C@H](C(=O)N[C@@H](CCCNC(=N)N)C(=O)O)C(C)C [NVPM7] (H-WTKPCQSDKDCKKFACRKPKVPKCINGFCKCVR-OH; N-terminus and C-terminus assumed) | improved anti-Botrytis activities relative to NCR13a | 2.71 |
| CC[C@H](C)[C@H](NC(=O)[C@H](CS)NC(=O)[C@H](CCCCN)NC(=O)[C@@H]1CCCN1C(=O)[C@@H](NC(=O)[C@H](CCCCN)NC(=O)[C@@H]1CCCN1C(=O)[C@H](CCCCN)NC(=O)[C@H](CCCNC(=N)N)NC(=O)[C@H](CS)NC(=O)[C@H](C)NC(=O)[C@H](Cc1ccccc1)NC(=O)[C@H](CCCCN)NC(=O)[C@H](CCCCN)NC(=O)[C@H](CS)NC(=O)[C@H](CC(=O)O)NC(=O)[C@H](CCCCN)NC(=O)[C@H](CC(=O)O)NC(=O)[C@H](CO)NC(=O)[C@H](CCC(N)=O)NC(=O)[C@H](CS)NC(=O)[C@@H]1CCCN1C(=O)[C@H](CCCCN)NC(=O)[C@@H](NC(=O)[C@@H](N)CC(=O)O)[C@@H](C)O)C(C)C)C(=O)N[C@@H](CC(N)=O)C(=O)NCC(=O)N[C@@H](Cc1ccccc1)C(=O)N[C@@H](CS)C(=O)N[C@@H](CCCCN)C(=O)N[C@@H](CS)C(=O)N[C@H](C(=O)N[C@@H](CCCNC(=N)N)C(=O)O)C(C)C [NVPM14] (H-DTKPCQSDKDCKKFACRKPKVPKCINGFCKCVR-OH; N-terminus and C-terminus assumed) | improved anti-Botrytis activities relative to NCR13a | 1.61 |
| CC[C@H](C)[C@H](NC(=O)[C@H](CS)NC(=O)[C@H](CCCCN)NC(=O)[C@@H]1CCCN1C(=O)[C@@H](NC(=O)[C@H](CCCCN)NC(=O)[C@@H]1CCCN1C(=O)[C@H](CCCCN)NC(=O)[C@H](CCCNC(=N)N)NC(=O)[C@H](CS)NC(=O)[C@H](C)NC(=O)[C@H](Cc1ccccc1)NC(=O)[C@H](CCCCN)NC(=O)[C@H](CCCCN)NC(=O)[C@H](CS)NC(=O)[C@H](CC(=O)O)NC(=O)[C@H](CCCCN)NC(=O)[C@H](CC(=O)O)NC(=O)[C@H](CO)NC(=O)[C@H](CCC(N)=O)NC(=O)[C@H](CS)NC(=O)[C@@H]1CCCN1C(=O)[C@H](CCCCN)NC(=O)[C@@H](NC(=O)[C@@H](N)CC(C)C)[C@@H](C)O)C(C)C)C(=O)N[C@@H](CC(N)=O)C(=O)NCC(=O)N[C@@H](Cc1ccccc1)C(=O)N[C@@H](CS)C(=O)N[C@@H](CCCCN)C(=O)N[C@@H](CS)C(=O)N[C@H](C(=O)N[C@@H](CCCNC(=N)N)C(=O)O)C(C)C [NVPM3] (H-LTKPCQSDKDCKKFACRKPKVPKCINGFCKCVR-OH; N-terminus and C-terminus assumed) | improved anti-Botrytis activities relative to NCR13a | 4.14 |
| CC[C@H](C)[C@H](NC(=O)[C@H](CS)NC(=O)[C@H](CCCCN)NC(=O)[C@@H]1CCCN1C(=O)[C@@H](NC(=O)[C@H](CCCCN)NC(=O)[C@@H]1CCCN1C(=O)[C@H](CCCCN)NC(=O)[C@H](CCCNC(=N)N)NC(=O)[C@H](CS)NC(=O)[C@H](C)NC(=O)[C@H](Cc1ccccc1)NC(=O)[C@H](CCCCN)NC(=O)[C@H](CCCCN)NC(=O)[C@H](CS)NC(=O)[C@H](CC(=O)O)NC(=O)[C@H](CCCCN)NC(=O)[C@H](CC(=O)O)NC(=O)[C@H](CO)NC(=O)[C@H](CCC(N)=O)NC(=O)[C@H](CS)NC(=O)[C@@H]1CCCN1C(=O)[C@H](CCCCN)NC(=O)[C@@H](NC(=O)[C@H](C)N)[C@@H](C)O)C(C)C)C(=O)N[C@@H](CC(N)=O)C(=O)NCC(=O)N[C@@H](Cc1ccccc1)C(=O)N[C@@H](CS)C(=O)N[C@@H](CCCCN)C(=O)N[C@@H](CS)C(=O)N[C@H](C(=O)N[C@@H](CCCNC(=N)N)C(=O)O)C(C)C [NVPM1] (H-ATKPCQSDKDCKKFACRKPKVPKCINGFCKCVR-OH; N-terminus and C-terminus assumed) |  | 2.43 |
| CC[C@H](C)[C@H](NC(=O)[C@H](CS)NC(=O)[C@H](CCCCN)NC(=O)[C@@H]1CCCN1C(=O)[C@@H](NC(=O)[C@H](CCCCN)NC(=O)[C@@H]1CCCN1C(=O)[C@H](CCCCN)NC(=O)[C@H](CCCNC(=N)N)NC(=O)[C@H](CS)NC(=O)[C@H](C)NC(=O)[C@H](Cc1ccccc1)NC(=O)[C@H](CCCCN)NC(=O)[C@H](CCCCN)NC(=O)[C@H](CS)NC(=O)[C@H](CC(=O)O)NC(=O)[C@H](CCCCN)NC(=O)[C@H](CC(=O)O)NC(=O)[C@H](CO)NC(=O)[C@H](CCC(N)=O)NC(=O)[C@H](CS)NC(=O)[C@@H]1CCCN1C(=O)[C@H](CCCCN)NC(=O)[C@@H](NC(=O)[C@@H](N)CCSC)[C@@H](C)O)C(C)C)C(=O)N[C@@H](CC(N)=O)C(=O)NCC(=O)N[C@@H](Cc1ccccc1)C(=O)N[C@@H](CS)C(=O)N[C@@H](CCCCN)C(=O)N[C@@H](CS)C(=O)N[C@H](C(=O)N[C@@H](CCCNC(=N)N)C(=O)O)C(C)C [NVPM5] (H-MTKPCQSDKDCKKFACRKPKVPKCINGFCKCVR-OH; N-terminus and C-terminus assumed) | improved anti-Botrytis activities relative to NCR13a | 2.74 |
